Experimental data taken from the kinase profiling compilation of Christmann-Franck et al. (2016).

Tests used:
Experiment in all cases: KINOMEscan competition binding
Details in all cases: compound 10.0 µM
STK17A (human) = STK17A (human) (UniProt Q9UEE5)
[1] = target: JAK3 JH1 catalytic (human) (UniProt P52333)
PIK3C2B (human) = PIK3C2B (human) (UniProt O00750)
TLK2 (human) = TLK2 (human) (UniProt Q86UE8)
FRK (human) = FRK (human) (UniProt P42685)
CDK5 (human) = CDK5 (human) (UniProt Q00535)
CDC42BPG (human) = CDC42BPG (human) (UniProt Q6DT37)
[2] = target: TYK2 JH1 catalytic (human) (UniProt P29597)
CDC42BPA (human) = CDC42BPA (human) (UniProt Q5VT25)
PAK3 (human) = PAK3 (human) (UniProt O75914)
PAK3 (human), sequence (O75914 whole entry, looked up): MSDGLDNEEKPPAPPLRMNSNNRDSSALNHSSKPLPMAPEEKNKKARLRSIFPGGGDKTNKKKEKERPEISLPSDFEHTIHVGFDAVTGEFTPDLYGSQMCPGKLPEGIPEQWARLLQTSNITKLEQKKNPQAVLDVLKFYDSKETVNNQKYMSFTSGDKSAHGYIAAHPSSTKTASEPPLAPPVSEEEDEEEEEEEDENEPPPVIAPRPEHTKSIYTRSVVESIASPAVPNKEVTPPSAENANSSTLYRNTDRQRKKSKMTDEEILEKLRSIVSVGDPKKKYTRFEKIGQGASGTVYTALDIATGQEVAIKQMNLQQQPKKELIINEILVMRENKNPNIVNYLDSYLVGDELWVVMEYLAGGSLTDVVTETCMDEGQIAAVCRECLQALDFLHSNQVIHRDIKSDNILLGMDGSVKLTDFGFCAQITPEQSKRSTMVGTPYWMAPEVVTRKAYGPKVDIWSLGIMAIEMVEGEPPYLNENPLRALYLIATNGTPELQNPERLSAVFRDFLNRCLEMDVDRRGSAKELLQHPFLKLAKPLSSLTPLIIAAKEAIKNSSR

MAP4K3 (human) = MAP4K3 (human) (UniProt Q8IVH8)
CDK17 (human) = CDK17 (human) (UniProt Q00537)
DAPK2 (human) = DAPK2 (human) (UniProt Q9UIK4)
NEK9 (human) = NEK9 (human) (UniProt Q8TD19)
CHEK1 (human) = CHEK1 (human) (UniProt O14757)
CHEK1 (human), sequence (O14757 whole entry, looked up): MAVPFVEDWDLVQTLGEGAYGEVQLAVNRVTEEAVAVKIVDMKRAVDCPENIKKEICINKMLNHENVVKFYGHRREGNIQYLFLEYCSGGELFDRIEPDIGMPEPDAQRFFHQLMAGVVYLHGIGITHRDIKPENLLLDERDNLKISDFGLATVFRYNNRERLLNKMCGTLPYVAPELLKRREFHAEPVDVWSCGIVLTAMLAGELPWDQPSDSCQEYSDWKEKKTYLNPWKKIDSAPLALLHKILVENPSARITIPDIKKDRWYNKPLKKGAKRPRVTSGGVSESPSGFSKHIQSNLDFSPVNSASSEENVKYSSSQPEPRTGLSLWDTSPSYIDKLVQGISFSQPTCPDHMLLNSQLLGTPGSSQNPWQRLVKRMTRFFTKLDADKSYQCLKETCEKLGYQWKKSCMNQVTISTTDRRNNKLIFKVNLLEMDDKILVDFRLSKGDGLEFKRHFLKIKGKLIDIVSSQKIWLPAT

MARK3 (human) = MARK3 (human) (UniProt P27448)
DMPK (human) = DMPK (human) (UniProt Q09013)
PLK1 (human) = PLK1 (human) (UniProt P53350)
TGFBR2 (human) = TGFBR2 (human) (UniProt P37173)
TGFBR2 (human), sequence (P37173 whole entry, looked up): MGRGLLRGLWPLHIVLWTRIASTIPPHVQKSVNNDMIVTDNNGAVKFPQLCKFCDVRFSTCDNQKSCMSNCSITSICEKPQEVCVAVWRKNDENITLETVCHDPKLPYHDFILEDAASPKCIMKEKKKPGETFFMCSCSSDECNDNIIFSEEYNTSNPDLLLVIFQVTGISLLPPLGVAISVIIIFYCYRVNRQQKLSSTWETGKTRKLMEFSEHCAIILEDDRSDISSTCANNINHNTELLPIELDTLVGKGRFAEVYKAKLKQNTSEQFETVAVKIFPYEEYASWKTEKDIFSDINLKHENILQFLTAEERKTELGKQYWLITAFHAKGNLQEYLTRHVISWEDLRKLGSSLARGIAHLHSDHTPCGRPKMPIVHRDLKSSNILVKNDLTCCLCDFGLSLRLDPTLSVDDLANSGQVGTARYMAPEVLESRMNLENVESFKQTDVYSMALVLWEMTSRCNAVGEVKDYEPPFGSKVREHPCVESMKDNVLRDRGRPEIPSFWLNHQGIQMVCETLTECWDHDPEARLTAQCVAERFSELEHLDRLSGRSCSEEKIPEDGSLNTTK

FGFR1 (human) = FGFR1 (human) (UniProt P11362)
MERTK (human) = MERTK (human) (UniProt Q12866)
BMPR1A (human) = BMPR1A (human) (UniProt P36894)
[3] = system: ABL1 (human), P00519 [M351T]
[4] = system: KIT (human), P10721 [V559D]
ACVR2A (human) = ACVR2A (human) (UniProt P27037)
STK24 (human) = STK24 (human) (UniProt Q9Y6E0)
MAPK8 (human) = MAPK8 (human) (UniProt P45983)
MAPK8 (human), sequence (P45983 whole entry, looked up): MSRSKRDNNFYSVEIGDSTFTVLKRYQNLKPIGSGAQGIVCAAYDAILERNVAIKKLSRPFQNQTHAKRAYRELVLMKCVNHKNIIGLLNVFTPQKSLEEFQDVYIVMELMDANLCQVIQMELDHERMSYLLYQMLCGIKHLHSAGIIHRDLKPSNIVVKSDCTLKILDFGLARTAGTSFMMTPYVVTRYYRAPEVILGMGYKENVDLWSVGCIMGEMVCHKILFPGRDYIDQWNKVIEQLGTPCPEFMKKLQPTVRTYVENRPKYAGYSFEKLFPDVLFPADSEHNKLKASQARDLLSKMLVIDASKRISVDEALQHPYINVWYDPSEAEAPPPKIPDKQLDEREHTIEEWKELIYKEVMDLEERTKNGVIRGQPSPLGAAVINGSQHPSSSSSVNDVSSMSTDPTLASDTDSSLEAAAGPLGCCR

PIK3CD (human) = PIK3CD (human) (UniProt O00329)
PIK3CD (human), sequence (O00329 whole entry, looked up): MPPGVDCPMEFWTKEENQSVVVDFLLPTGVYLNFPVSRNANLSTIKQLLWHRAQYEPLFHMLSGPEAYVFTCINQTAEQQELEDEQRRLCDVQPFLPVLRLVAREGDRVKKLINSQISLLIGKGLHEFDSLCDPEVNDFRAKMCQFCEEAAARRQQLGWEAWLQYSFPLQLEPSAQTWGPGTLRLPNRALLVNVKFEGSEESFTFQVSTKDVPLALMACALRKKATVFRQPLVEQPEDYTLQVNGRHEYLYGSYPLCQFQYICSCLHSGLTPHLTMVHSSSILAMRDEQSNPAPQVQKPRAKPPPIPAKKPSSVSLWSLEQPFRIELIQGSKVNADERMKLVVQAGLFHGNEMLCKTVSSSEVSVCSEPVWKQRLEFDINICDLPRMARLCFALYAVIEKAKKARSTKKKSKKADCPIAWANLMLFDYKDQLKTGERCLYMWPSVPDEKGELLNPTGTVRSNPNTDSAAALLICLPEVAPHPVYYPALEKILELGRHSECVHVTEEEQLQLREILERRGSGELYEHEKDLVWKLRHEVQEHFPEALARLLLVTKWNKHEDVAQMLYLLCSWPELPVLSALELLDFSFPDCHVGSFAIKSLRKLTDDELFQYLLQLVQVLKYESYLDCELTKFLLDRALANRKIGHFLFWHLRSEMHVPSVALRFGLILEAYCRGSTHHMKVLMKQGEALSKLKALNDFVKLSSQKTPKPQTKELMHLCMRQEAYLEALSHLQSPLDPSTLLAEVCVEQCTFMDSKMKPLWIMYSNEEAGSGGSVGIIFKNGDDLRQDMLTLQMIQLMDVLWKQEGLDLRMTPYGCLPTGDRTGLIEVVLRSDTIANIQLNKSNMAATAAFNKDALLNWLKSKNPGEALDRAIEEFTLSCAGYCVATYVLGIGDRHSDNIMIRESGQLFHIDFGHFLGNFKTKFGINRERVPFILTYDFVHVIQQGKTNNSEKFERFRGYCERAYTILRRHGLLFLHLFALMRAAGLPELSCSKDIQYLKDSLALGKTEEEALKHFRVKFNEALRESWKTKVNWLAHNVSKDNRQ

MAP3K11 (human) = MAP3K11 (human) (UniProt Q16584)
INSR (human) = INSR (human) (UniProt P06213)
INSR (human), sequence (P06213 whole entry, looked up): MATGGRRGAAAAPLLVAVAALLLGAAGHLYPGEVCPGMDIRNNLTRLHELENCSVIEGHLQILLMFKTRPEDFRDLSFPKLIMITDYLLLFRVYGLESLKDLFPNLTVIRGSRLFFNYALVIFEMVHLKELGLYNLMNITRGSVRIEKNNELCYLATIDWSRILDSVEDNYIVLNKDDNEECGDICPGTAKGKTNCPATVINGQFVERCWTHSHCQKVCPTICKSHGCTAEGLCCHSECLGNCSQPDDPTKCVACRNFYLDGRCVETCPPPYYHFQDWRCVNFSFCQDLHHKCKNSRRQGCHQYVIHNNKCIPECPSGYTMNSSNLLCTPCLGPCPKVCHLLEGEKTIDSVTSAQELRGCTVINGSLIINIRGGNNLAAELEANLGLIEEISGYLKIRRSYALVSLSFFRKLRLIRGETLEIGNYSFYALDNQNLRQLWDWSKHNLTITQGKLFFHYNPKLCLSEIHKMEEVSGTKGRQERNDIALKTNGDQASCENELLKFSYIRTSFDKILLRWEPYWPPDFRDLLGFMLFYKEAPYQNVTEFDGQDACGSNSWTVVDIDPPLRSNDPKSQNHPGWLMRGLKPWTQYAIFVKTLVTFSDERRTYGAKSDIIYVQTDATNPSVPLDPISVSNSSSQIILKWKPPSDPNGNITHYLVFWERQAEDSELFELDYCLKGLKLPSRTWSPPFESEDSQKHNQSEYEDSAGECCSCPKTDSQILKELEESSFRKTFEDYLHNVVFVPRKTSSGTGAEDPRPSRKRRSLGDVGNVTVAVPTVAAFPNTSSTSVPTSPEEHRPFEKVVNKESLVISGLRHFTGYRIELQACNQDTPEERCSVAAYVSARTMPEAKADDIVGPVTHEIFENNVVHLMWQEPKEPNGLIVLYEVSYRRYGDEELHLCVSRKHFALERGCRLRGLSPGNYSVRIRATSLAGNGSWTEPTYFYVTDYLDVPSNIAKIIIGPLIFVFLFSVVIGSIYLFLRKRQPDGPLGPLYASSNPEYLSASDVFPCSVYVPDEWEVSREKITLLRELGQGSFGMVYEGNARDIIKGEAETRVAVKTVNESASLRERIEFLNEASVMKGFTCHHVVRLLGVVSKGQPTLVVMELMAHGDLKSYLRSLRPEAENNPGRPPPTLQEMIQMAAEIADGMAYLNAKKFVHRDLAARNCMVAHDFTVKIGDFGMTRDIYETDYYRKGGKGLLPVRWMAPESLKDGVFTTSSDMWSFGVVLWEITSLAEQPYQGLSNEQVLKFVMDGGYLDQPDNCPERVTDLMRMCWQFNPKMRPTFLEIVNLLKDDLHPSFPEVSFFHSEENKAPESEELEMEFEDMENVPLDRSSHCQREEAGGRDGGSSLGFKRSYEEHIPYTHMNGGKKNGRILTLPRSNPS

MST1R (human) = MST1R (human) (UniProt Q04912)
CAMK2G (human) = CAMK2G (human) (UniProt Q13555)
INSRR (human) = INSRR (human) (UniProt P14616)
PRKAA2 (human) = PRKAA2 (human) (UniProt P54646)
[5] = system: FLT3 (human), P36888 [N841I]
STK11 (human) = STK11 (human) (UniProt Q15831)
AURKB (human) = AURKB (human) (UniProt Q96GD4)
CSNK1A1L (human) = CSNK1A1L (human) (UniProt Q8N752)
STK4 (human) = STK4 (human) (UniProt Q13043)
CLK4 (human) = CLK4 (human) (UniProt Q9HAZ1)
CLK4 (human), sequence (Q9HAZ1 whole entry, looked up): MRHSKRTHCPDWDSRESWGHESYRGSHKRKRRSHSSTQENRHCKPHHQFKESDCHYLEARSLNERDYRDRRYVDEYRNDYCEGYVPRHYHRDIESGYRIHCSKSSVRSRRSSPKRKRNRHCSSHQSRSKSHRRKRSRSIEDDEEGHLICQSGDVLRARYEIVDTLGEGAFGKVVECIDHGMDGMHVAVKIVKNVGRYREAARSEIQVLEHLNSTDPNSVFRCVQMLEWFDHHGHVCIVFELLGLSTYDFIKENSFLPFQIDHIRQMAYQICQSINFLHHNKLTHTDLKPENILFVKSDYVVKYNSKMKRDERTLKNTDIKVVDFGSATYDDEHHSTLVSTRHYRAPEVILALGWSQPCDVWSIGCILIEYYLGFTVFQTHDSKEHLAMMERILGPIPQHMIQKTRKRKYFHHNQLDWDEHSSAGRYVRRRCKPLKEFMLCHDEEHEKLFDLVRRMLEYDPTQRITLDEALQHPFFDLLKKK

With `N#Cc1c(NC(=O)c2cccc3ccccc23)sc2c1CCCC2` the kinase still bound, per cent of control (STK17A (human)) was 100%, the kinase still bound, per cent of control [1] was 98% and the kinase still bound, per cent of control (PIK3C2B (human)) was 100%. The kinase still bound, per cent of control (TLK2 (human)) was 100%, the kinase still bound, per cent of control (FRK (human)) was 58% and the kinase still bound, per cent of control (CDK5 (human)) was 100%. It also gave a kinase still bound, per cent of control (CDC42BPG (human)) of 81%, a kinase still bound, per cent of control [2] of 100% and a kinase still bound, per cent of control (CDC42BPA (human)) of 100%. For the same molecule, the kinase still bound, per cent of control (PAK3 (human)) was 94%, the kinase still bound, per cent of control (MAP4K3 (human)) was 79% and the kinase still bound, per cent of control (CDK17 (human)) was 93%. For the same molecule, the kinase still bound, per cent of control (DAPK2 (human)) was 91%, the kinase still bound, per cent of control (NEK9 (human)) was 70% and the kinase still bound, per cent of control (CHEK1 (human)) was 82%. The kinase still bound, per cent of control (MARK3 (human)) was 89%, the kinase still bound, per cent of control (DMPK (human)) was 83% and the kinase still bound, per cent of control (PLK1 (human)) was 81%. For the same molecule, the kinase still bound, per cent of control (TGFBR2 (human)) was 100%, the kinase still bound, per cent of control (FGFR1 (human)) was 99% and the kinase still bound, per cent of control (MERTK (human)) was 100%. For the same molecule, the kinase still bound, per cent of control (BMPR1A (human)) was 96%, the kinase still bound, per cent of control [3] was 98% and the kinase still bound, per cent of control [4] was 60%. For the same molecule, the kinase still bound, per cent of control (ACVR2A (human)) was 69%, the kinase still bound, per cent of control (STK24 (human)) was 80% and the kinase still bound, per cent of control (MAPK8 (human)) was 60%. It also gave a kinase still bound, per cent of control (PIK3CD (human)) of 100%, a kinase still bound, per cent of control (MAP3K11 (human)) of 98% and a kinase still bound, per cent of control (INSR (human)) of 100%. For the same molecule, the kinase still bound, per cent of control (MST1R (human)) was 95%, the kinase still bound, per cent of control (CAMK2G (human)) was 94% and the kinase still bound, per cent of control (INSRR (human)) was 100%. It also gave a kinase still bound, per cent of control (PRKAA2 (human)) of 84%, a kinase still bound, per cent of control [5] of 86% and a kinase still bound, per cent of control (STK11 (human)) of 81%. For the same molecule, the kinase still bound, per cent of control (AURKB (human)) was 94%, the kinase still bound, per cent of control (CSNK1A1L (human)) was 66% and the kinase still bound, per cent of control (STK4 (human)) was 94%. The kinase still bound, per cent of control (CLK4 (human)) was 84%.
